The record followed here is PubChem BioAssay AID330 (DTP/NCI, 2004).

“And” between values parts separate entries of the source, which are not always exact repeats. Equal values may be shown once. Toxic doses and inconclusive results are not listed.

For the assay, the system named is P388 leukemia ip, CD2F1 mice, survival T/C. The assay can be described thus: NCI In Vivo Anticancer Drug Screen. Data for tumor model P388 Leukemia (intraperitoneal) in CD2F1 (CDF1) mice. The conditions noted are these: endpoint: median survival time, higher = longer survival. An outline of the steps:
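Mice carrying the transplanted tumor received test compound or vehicle. Survival was recorded in each group, and the value is the treated-group measurement divided by that of the vehicle-treated control group.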

Where [1] appears, read: dose: 200.0 mg/kg/injection, schedule: Q01DX009 (ip), vehicle: Klucel (hydroxypropylcellulose) (HPC).
Setting [2] is: dose: 200.0 mg/kg/injection, schedule: Q01DX009 (ip), vehicle: saline with Tween-80.
[3] abbreviates: dose: 100.0 mg/kg/injection, schedule: Q01DX001 (ip), vehicle: saline with Tween-80.
The mark [4] stands for this setting: dose: 200.0 mg/kg/injection, schedule: Q01DX001 (ip), vehicle: saline with Tween-80.
Setting [5] is: dose: 400.0 mg/kg/injection, schedule: Q01DX001 (ip), vehicle: saline with Tween-80.

Take `Nc1cc2[nH]cnc2c(=O)[nH]1`: the T/C by setting is: (dose: 6.25 mg/kg/injection, schedule: Q01DX009 (ip), vehicle: suspension in saline) 109 % of control and 95 % of control; (dose: 12.5 mg/kg/injection, schedule: Q01DX009 (ip), vehicle: suspension in saline) 101 % of control and 113 % of control and 97 % of control; (dose: 25.0 mg/kg/injection, schedule: Q01DX009 (ip), vehicle: Klucel (hydroxypropylcellulose) (HPC)) 100 % of control; (dose: 25.0 mg/kg/injection, schedule: Q01DX009 (ip), vehicle: suspension in saline) 103 % of control and 107 % of control and 96 % of control; (dose: 50.0 mg/kg/injection, schedule: Q01DX009 (ip), vehicle: Klucel (hydroxypropylcellulose) (HPC)) 108 % of control; (dose: 100.0 mg/kg/injection, schedule: Q01DX009 (ip), vehicle: suspension in saline) 99 % of control and 113 % of control. Also, the T/C is 100 % of control under setting [1]; 95 % of control under setting [2]; 86 % of control and 87 % of control (dose: 200.0 mg/kg/injection, schedule: Q01DX009 (ip), vehicle: suspension in saline).

As for `CC1(N)C(=O)NC(=O)c2cnccc21` (configuration not stated), the T/C by setting is: (dose: 100.0 mg/kg/injection, schedule: Q01DX001 (ip), vehicle: saline) 104 % of control; (dose: 200.0 mg/kg/injection, schedule: Q01DX001 (ip), vehicle: saline) 107 % of control; (dose: 400.0 mg/kg/injection, schedule: Q01DX001 (ip), vehicle: saline) 97 % of control.

With `O=C1c2ccccc2C(=O)c2c(O)c(O)cc(O)c21`, the T/C (dose: 60.0 mg/kg/injection, schedule: Q01DX005 (ip), vehicle: saline) was 94 % of control; the T/C (dose: 120.0 mg/kg/injection, schedule: Q01DX005 (ip), vehicle: saline) is 91 % of control; the T/C (dose: 240.0 mg/kg/injection, schedule: Q01DX005 (ip), vehicle: saline) is 94 % of control.

Take `O=[N+]([O-])c1ccc(N2N=NC(CN3CCOCC3)C2N2CCOCC2)cc1` (configuration not stated): the T/C runs as follows: (dose: 60.0 mg/kg/injection, schedule: Q01DX005 (ip), vehicle: Klucel (hydroxypropylcellulose) (HPC)) 111 % of control; (dose: 120.0 mg/kg/injection, schedule: Q01DX005 (ip), vehicle: Klucel (hydroxypropylcellulose) (HPC)) 117 % of control; (dose: 240.0 mg/kg/injection, schedule: Q01DX005 (ip), vehicle: Klucel (hydroxypropylcellulose) (HPC)) 118 % of control.

Take `CC(=O)NC(CC(C)C(C)=O)C(=O)O` (configuration not stated): the T/C (dose: 50.0 mg/kg/injection, schedule: Q01DX005 (ip), vehicle: saline) was 92 % of control; the T/C (dose: 100.0 mg/kg/injection, schedule: Q01DX005 (ip), vehicle: saline) is 95 % of control; the T/C (dose: 200.0 mg/kg/injection, schedule: Q01DX005 (ip), vehicle: saline) is 92 % of control.

For `Cc1nn(C(=O)c2ccncc2)c(C)c1N=Nc1ccccc1Cl`, the T/C is, setting by setting: (dose: 100.0 mg/kg/injection, schedule: Q04DX003 (ip), vehicle: Klucel (hydroxypropylcellulose) (HPC)) 96 % of control; (dose: 200.0 mg/kg/injection, schedule: Q04DX003 (ip), vehicle: Klucel (hydroxypropylcellulose) (HPC)) 95 % of control; (dose: 400.0 mg/kg/injection, schedule: Q04DX003 (ip), vehicle: Klucel (hydroxypropylcellulose) (HPC)) 97 % of control.

`CCCCNC(=S)N/N=C/c1nc2ccccc2c(=O)n1-c1ccc(Br)cc1`: the T/C is, setting by setting: (dose: 100.0 mg/kg/injection, schedule: Q04DX002 (ip), vehicle: saline with Tween-80) 98 % of control; (dose: 200.0 mg/kg/injection, schedule: Q04DX002 (ip), vehicle: saline with Tween-80) 89 % of control.

With `CC(=O)O[C@H]1C2c3c(ccc4c(=O)cc(-c5ccccc5)oc34)OC2OC1(C)C` (some centres not stated), the T/C is 97 % of control (dose: 0.4 mg/kg/injection, schedule: Q01DX005 (ip), vehicle: Klucel (hydroxypropylcellulose) (HPC)); 92 % of control (dose: 0.8 mg/kg/injection, schedule: Q01DX005 (ip), vehicle: Klucel (hydroxypropylcellulose) (HPC)); 97 % of control (dose: 1.6 mg/kg/injection, schedule: Q01DX005 (ip), vehicle: Klucel (hydroxypropylcellulose) (HPC)); 98 % of control (dose: 3.2 mg/kg/injection, schedule: Q01DX005 (ip), vehicle: Klucel (hydroxypropylcellulose) (HPC)).

In the case of `O=C1c2c(ccc3ccccc23)CN2CCCCC12` (configuration not stated), the T/C is, setting by setting: (dose: 60.0 mg/kg/injection, schedule: Q01DX005 (ip), vehicle: saline with Tween-80) 101 % of control; (dose: 120.0 mg/kg/injection, schedule: Q01DX005 (ip), vehicle: saline with Tween-80) 103 % of control; (dose: 240.0 mg/kg/injection, schedule: Q01DX005 (ip), vehicle: saline with Tween-80) 103 % of control.

For the compound `c1csc(-c2[nH]nc3c2CCc2ccccc2-3)c1`, the T/C is 122 % of control (dose: 3.75 mg/kg/injection, schedule: Q01DX005 (ip), vehicle: Klucel (hydroxypropylcellulose) (HPC)); 114 % of control (dose: 7.5 mg/kg/injection, schedule: Q01DX005 (ip), vehicle: Klucel (hydroxypropylcellulose) (HPC)); 114 % of control (dose: 15.0 mg/kg/injection, schedule: Q01DX005 (ip), vehicle: Klucel (hydroxypropylcellulose) (HPC)).

`O=C1c2ccccc2C(=O)c2c1ccc(C(=O)O)c2-c1ccc2ccccc2c1`: the T/C was 101 % of control (dose: 100.0 mg/kg/injection, schedule: Q01DX009 (ip), vehicle: Klucel (hydroxypropylcellulose) (HPC)); 116 % of control under setting [1]; 117 % of control (dose: 400.0 mg/kg/injection, schedule: Q01DX009 (ip), vehicle: Klucel (hydroxypropylcellulose) (HPC)).

On to `COC(=O)c1n[nH]n(Cc2cccs2)c1=O` (tested in a mixture with another compound), for which the T/C is, setting by setting: (dose: 50.0 mg/kg/injection, schedule: Q01DX005 (ip), vehicle: Klucel (hydroxypropylcellulose) (HPC)) 108 % of control; (dose: 100.0 mg/kg/injection, schedule: Q01DX005 (ip), vehicle: Klucel (hydroxypropylcellulose) (HPC)) 103 % of control; (dose: 200.0 mg/kg/injection, schedule: Q01DX005 (ip), vehicle: Klucel (hydroxypropylcellulose) (HPC)) 97 % of control.

Consider `Cc1ccc(S(=O)(=O)Nc2ccc3nc(C)oc3c2)cc1`, for which the T/C under setting [3] is 100 % of control, the T/C under setting [4] is 100 % of control and the T/C under setting [5] was 100 % of control.

Turning to `CCCCCCCC1SC(=S)NC1=O` (configuration not stated), the T/C runs as follows: (dose: 6.25 mg/kg/injection, schedule: Q04DX003 (ip), vehicle: other) 109 % of control; (dose: 12.5 mg/kg/injection, schedule: Q04DX003 (ip), vehicle: other) 101 % of control; (dose: 25.0 mg/kg/injection, schedule: Q04DX003 (ip), vehicle: other) 108 % of control; (dose: 50.0 mg/kg/injection, schedule: Q04DX003 (ip), vehicle: other) 108 % of control; (dose: 100.0 mg/kg/injection, schedule: Q04DX003 (ip), vehicle: other) 101 % of control.

Turning to `C/C(=N/NC(N)=O)c1ccc2c3c(cc(Br)c2c1)CCCC3`, the T/C is 99 % of control (dose: 6.25 mg/kg/injection, schedule: Q01DX005 (ip), vehicle: saline with Tween-80); 99 % of control (dose: 12.5 mg/kg/injection, schedule: Q01DX005 (ip), vehicle: saline with Tween-80); 95 % of control (dose: 25.0 mg/kg/injection, schedule: Q01DX005 (ip), vehicle: saline with Tween-80); 91 % of control (dose: 50.0 mg/kg/injection, schedule: Q01DX005 (ip), vehicle: saline with Tween-80).

`O=[N+]([O-])O.O=[N+]([O-])O.[NH-]C(c1ccccc1)C([NH-])c1ccccc1.[Pt+2]` (configuration not stated): the T/C (dose: 6.25 mg/kg/injection, schedule: Q04DX002 (ip), vehicle: saline) is 161 % of control; the T/C (dose: 12.5 mg/kg/injection, schedule: Q04DX002 (ip), vehicle: saline) is 154 % of control; the T/C (dose: 25.0 mg/kg/injection, schedule: Q04DX002 (ip), vehicle: saline) was 154 % of control.

As for `Cc1ccc(NC(=S)NC2C(=O)Nc3ccccc32)cc1` (configuration not stated), the T/C is 92 % of control under setting [3], 93 % of control under setting [4] and 87 % of control under setting [5].

In the case of `C=C1C2CCC3C(CCC4C35CCC[C@]4(C)CN3CCO[C@H]35)(C2)[C@H]1O` (some centres not stated), the T/C is, setting by setting: (dose: 1.0 mg/kg/injection, schedule: Q01DX009 (ip), vehicle: Klucel (hydroxypropylcellulose) (HPC)) 100 % of control; (dose: 2.0 mg/kg/injection, schedule: Q01DX009 (ip), vehicle: Klucel (hydroxypropylcellulose) (HPC)) 98 % of control; (dose: 4.0 mg/kg/injection, schedule: Q01DX009 (ip), vehicle: Klucel (hydroxypropylcellulose) (HPC)) 106 % of control; (dose: 8.0 mg/kg/injection, schedule: Q01DX009 (ip), vehicle: Klucel (hydroxypropylcellulose) (HPC)) 96 % of control.

As for `CCOC(=O)c1ccc(NC(CCN2CCOCC2)=NC(C)(C)C)cc1`, the T/C is, setting by setting: (dose: 50.0 mg/kg/injection, schedule: Q01DX009 (ip), vehicle: saline with Tween-80) 111 % of control; (dose: 100.0 mg/kg/injection, schedule: Q01DX009 (ip), vehicle: saline with Tween-80) 106 % of control; under setting [2], 105 % of control.
